Assay results reported in PubChem BioAssay AID248 (DTP/NCI, 2004).
Toxic doses and inconclusive results are not listed. No stated cut-off is given here; in the data, active means T/C of 150% or more; inactive means T/C below 125%.

Test system: L1210 leukemia ip in BDF1 mice, survival T/C
Assay: NCI In Vivo Anticancer Drug Screen. Data for tumor model L1210 Leukemia (intraperitoneal) in B6D2F1 (BDF1) mice
Conditions: endpoint: mean survival time, higher = longer survival
Procedure, shortened: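 Transplantable tumor model; survival measured in treated vs vehicle control mice. Value = treated/control.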

[1] = dose: 100.0 mg/kg/injection, schedule: Q04DX003 (ip), vehicle: Klucel (hydroxypropylcellulose) (HPC)
[2] = dose: 200.0 mg/kg/injection, schedule: Q04DX003 (ip), vehicle: Klucel (hydroxypropylcellulose) (HPC)
[3] = dose: 400.0 mg/kg/injection, schedule: Q04DX003 (ip), vehicle: Klucel (hydroxypropylcellulose) (HPC)
[4] = dose: 100.0 mg/kg/injection, schedule: Q01DX009 (ip), vehicle: Klucel (hydroxypropylcellulose) (HPC)
[5] = dose: 200.0 mg/kg/injection, schedule: Q01DX009 (ip), vehicle: Klucel (hydroxypropylcellulose) (HPC)
[6] = dose: 400.0 mg/kg/injection, schedule: Q01DX009 (ip), vehicle: Klucel (hydroxypropylcellulose) (HPC)

Measured: T/C

CC1(C)N=C(N)N=C(N)N1c1cccc(CCCCc2cccc(N)c2)c1
inactive: dose: 5.0 mg/kg/injection, schedule: Q01DX001 (ip), vehicle: saline 98 % of control | dose: 10.0 mg/kg/injection, schedule: Q01DX001 (ip), vehicle: saline 102 % of control | dose: 20.0 mg/kg/injection, schedule: Q01DX001 (ip), vehicle: saline 113 % of control

Cc1cc(NC(=O)NC/C=C/Br)c2ccccc2n1
inactive: dose: 100.0 mg/kg/injection, schedule: Q01DX001 (ip), vehicle: Klucel (hydroxypropylcellulose) (HPC) 97 % of control | [1] 98 % of control | dose: 200.0 mg/kg/injection, schedule: Q01DX001 (ip), vehicle: Klucel (hydroxypropylcellulose) (HPC) 108 % of control | [2] 93 % of control | dose: 400.0 mg/kg/injection, schedule: Q01DX001 (ip), vehicle: Klucel (hydroxypropylcellulose) (HPC) 97 % of control | [3] 101 % of control

O=C1NC(O)C(O)N1 (configuration not stated)
inactive: [4] 104 % of control | [1] 100 % of control | [5] 96 % of control | [2] 96 % of control | [6] 105 % of control | [3] 100 % of control

Nc1cc2c(cc1Br)-c1cc(Br)c(N)cc1C2=O
inactive: dose: 100.0 mg/kg/injection, schedule: Q01DX001 (ip), vehicle: carboxymethylcellulose (CMC) 98 % of control | dose: 200.0 mg/kg/injection, schedule: Q01DX001 (ip), vehicle: carboxymethylcellulose (CMC) 98 % of control | dose: 400.0 mg/kg/injection, schedule: Q01DX001 (ip), vehicle: carboxymethylcellulose (CMC) 102 % of control

CCCNP(=S)(NCCC)NCCC
inactive: dose: 50.0 mg/kg/injection, schedule: Q01DX001 (ip), vehicle: other 96 % of control | dose: 100.0 mg/kg/injection, schedule: Q01DX001 (ip), vehicle: other 100 % of control | dose: 200.0 mg/kg/injection, schedule: Q01DX001 (ip), vehicle: other 105 % of control | dose: 400.0 mg/kg/injection, schedule: Q01DX001 (ip), vehicle: other 100 % of control

C[C@H]1C[C@@H]2[C@H]([C@@H](O)C[C@@]3(C)[C@H]2CC[C@]3(O)C(=O)CO)[C@@]2(C)C=CC(=O)C=C12
inactive: dose: 6.25 mg/kg/injection, schedule: Q01DX009 (ip), vehicle: Klucel (hydroxypropylcellulose) (HPC) 104 % of control | dose: 12.5 mg/kg/injection, schedule: Q01DX009 (ip), vehicle: Klucel (hydroxypropylcellulose) (HPC) 104 % of control | dose: 12.5 mg/kg/injection, schedule: Q01DX Z (sc), vehicle: water 107 % of control | dose: 25.0 mg/kg/injection, schedule: Q01DX009 (ip), vehicle: Klucel (hydroxypropylcellulose) (HPC) 102 % of control | dose: 25.0 mg/kg/injection, schedule: Q01DX Z (sc), vehicle: water 108 % of control | dose: 50.0 mg/kg/injection, schedule: Q01DX009 (ip), vehicle: Klucel (hydroxypropylcellulose) (HPC) 98 % of control | dose: 50.0 mg/kg/injection, schedule: Q01DX Z (sc), vehicle: water 107 % of control | [4] 107 % of control | dose: 100.0 mg/kg/injection, schedule: Q01DX Z (sc), vehicle: water 110 % of control | [5] 104 % of control | dose: 200.0 mg/kg/injection, schedule: Q01DX Z (sc), vehicle: water 115 % of control

S=C(NCc1ccccc1)C(=S)NCc1ccccc1
inactive: [1] 105 % of control | [2] 98 % of control

Cc1ccc2cc(O)ccc2c1
inactive: dose: 100.0 mg/kg/injection, schedule: Q01DX001 (ip), vehicle: saline 91 % of control | dose: 100.0 mg/kg/injection, schedule: Q04DX003 (ip), vehicle: acetone 90 % of control | dose: 200.0 mg/kg/injection, schedule: Q01DX001 (ip), vehicle: saline 96 % of control | dose: 200.0 mg/kg/injection, schedule: Q04DX003 (ip), vehicle: acetone 90 % of control | dose: 400.0 mg/kg/injection, schedule: Q01DX001 (ip), vehicle: saline 92 % of control

Cc1cc(C)c(C(=O)c2ccc([N+](=O)[O-])cc2)c(C)c1
inactive: [4] 98 % of control | [1] 105 % of control | [5] 86 % of control | [2] 95 % of control | [6] 86 % of control | [3] 94 % of control

CN(C)C(C)(C)CO
inactive: dose: 100.0 mg/kg/injection, schedule: Q01DX009 (ip), vehicle: saline 98 % of control | dose: 100.0 mg/kg/injection, schedule: Q04DX003 (ip), vehicle: saline 96 % of control | dose: 200.0 mg/kg/injection, schedule: Q01DX009 (ip), vehicle: saline 98 % of control | dose: 200.0 mg/kg/injection, schedule: Q04DX003 (ip), vehicle: saline 98 % of control | dose: 400.0 mg/kg/injection, schedule: Q04DX003 (ip), vehicle: saline 101 % of control

O=[N+]([O-])c1cc(CN2CCCCC2)c(O)c2cccnc12
inactive: dose: 75.0 mg/kg/injection, schedule: Q01DX001 (ip), vehicle: saline 101 % of control | dose: 150.0 mg/kg/injection, schedule: Q01DX001 (ip), vehicle: saline 106 % of control | dose: 300.0 mg/kg/injection, schedule: Q01DX001 (ip), vehicle: saline 101 % of control

NCCN=C(N)C(N)=NCCN
inactive: dose: 100.0 mg/kg/injection, schedule: Q04DX002 (ip), vehicle: saline 100 % of control | dose: 200.0 mg/kg/injection, schedule: Q04DX002 (ip), vehicle: saline 103 % of control | dose: 400.0 mg/kg/injection, schedule: Q04DX002 (ip), vehicle: saline 110 % of control
